These results are taken from patent US9428815B2, “HIV-1 reverse transcriptase codon deletion and its use in the management and treatment of HIV infections” (Emory University, priority 2007, dated 2016).

The subject of test [1] is HIVs68Δ-23 (S68del virus isolated at week 23). Briefly: 3H-TTP RT incorporation assay, drug susceptibility of in vitro-selected S68del virus in human PBM cells. The settings on record: Human immunodeficiency virus 1, PBMC; HIVs68Δ-23 in human PBM cells; averages of 2-6 independent experiments. The class given is cell-based, HIV-1. Here is the method:
Peripheral blood mononuclear (PBM) cells were separated by ficoll-hypaque (Histopaque 1077: Sigma) density gradient centrifugation from Buffy coats obtained from the American Red Cross (Atlanta, Ga.). Buffy coats were derived from healthy seronegative donors. Cells were activated with 3 μg/ml phytohaemagglutinin A (Sigma-Aldrich, St. Louis, Mo.) in 500 ml of RPMI-1640 (Mediatech Inc., Herndon, Va.) containing 100 ml heat-inactivated fetal bovine serum (Hyclone), 83.3 IU/ml penicillin, 83.3 μg/ml streptomycin, 1.6 mM L-glutamine (Mediatech Inc., Herndon, Va.), for 2-3 days prior to use.
Drug resistance of the S68del virus isolated at week 23 (HIVs68Δ-23) was measured with the 3H-TTP RT incorporation assay in human PBM cells (Schinazi, et al., Antimicrob. Agents Chemother. 1990; 34:1061-1067; Stuyver et al., Antimicrob. Agents Chemother. 2002; 46:3854-60). HIVs68Δ-23 was population sequenced to ensure the dominant population was the deletion at codon 68. […] The susceptibility of the S68del virus to several nucleoside reverse transcriptase inhibitors (NRTI), a non-nucleoside reverse transcriptase inhibitor (NNRTI) and a protease inhibitor (PI) was tested. Fold increases were measured relative to HIVLAI (Table 4, FIGS. 2 and 3). Data are the averages of 2-6 independent experiments.

Test [2] deals with RT derived from M184V particles (Human immunodeficiency virus type 1 group M subtype B, UniProt P03367, M783V). The note with it: particle-derived RT, 3.2 mM ATP, FIG. 5. The text has this:
The principle and performance of the non-radioactive RT assay has been described (Lennerstrand et al., Antimicrob. Agents Chemother. 2007; 51:2078-2084). Separate kit components, such as covalently-linked DNA microtiter plates and tracer solution (alkaline phosphate (AP)-conjugated anti-BrdU antibody) were obtained from Cavidi Tech, Uppsala, Sweden. In brief, the 96-well microtiter plate used consisted of an 18 base heteropolymeric DNA primer covalently bound to the well. In the RT assay, the DNA primer is bound to a 50-base DNA template at 50 ng/well (190 nM) with a 5′-A12-3′ tail with a 5′-(GTCA)5-3′ repeat (Integrated DNA Technologies, USA). The RT assay reaction mixture (total volume 150 μl/well) contained: Hepes 50 mM, pH 7.3; MgCl2 10 mM; Triton X-100 0.5%; bovine serum albumin 0.1 mg/ml; dATP, dGTP, dCTP and 5-bromo-2′-deoxyuridine-5′-triphosphate (BrdUTP) at 1.0 μM each (where BrdUTP replaces TTP) (Sigma). To obtain ATP primer unblocking reaction in the assay, the ATP (Amersham/GE Health Care) was set to physiological concentration (3.2 mM). However, the ATP was only used in the assay with virus pellets as sample, not merely for primer unblocking reaction but to protect degradation of substrate in the crude sample. Furthermore, the dNTP level including BrdUTP was increased from 1 μM to 4 μM for the assay with the virus pellet samples. […]

The target in test [3] is T1, RT from virally-derived S68del (Human immunodeficiency virus type 1 group M subtype B, UniProt P03367, DEL667-667).
T1 construct: The resistance of RT derived from S68del and M184V particles; made in house; host or cells: crude virus pellet; the virus was passaged in human PBM cells
Put plainly: Heteropolymeric-DNA colorimetric RT assay with 3.2 mM ATP, particle-derived S68del RT. The class given is biochemical, HIV-1. The source says:
(§1) The principle and performance of the non-radioactive RT assay has been described (Lennerstrand et al., Antimicrob. Agents Chemother. 2007; 51:2078-2084). Separate kit components, such as covalently-linked DNA microtiter plates and tracer solution (alkaline phosphate (AP)-conjugated anti-BrdU antibody) were obtained from Cavidi Tech, Uppsala, Sweden. In brief, the 96-well microtiter plate used consisted of an 18 base heteropolymeric DNA primer covalently bound to the well. In the RT assay, the DNA primer is bound to a 50-base DNA template at 50 ng/well (190 nM) with a 5′-A12-3′ tail with a 5′-(GTCA)5-3′ repeat (Integrated DNA Technologies, USA). The RT assay reaction mixture (total volume 150 μl/well) contained: Hepes 50 mM, pH 7.3; MgCl2 10 mM; Triton X-100 0.5%; bovine serum albumin 0.1 mg/ml; dATP, dGTP, dCTP and 5-bromo-2′-deoxyuridine-5′-triphosphate (BrdUTP) at 1.0 μM each (where BrdUTP replaces TTP) (Sigma). To obtain ATP primer unblocking reaction in the assay, the ATP (Amersham/GE Health Care) was set to physiological concentration (3.2 mM). However, the ATP was only used in the assay with virus pellets as sample, not merely for primer unblocking reaction but to protect degradation of substrate in the crude sample. Furthermore, the dNTP level including BrdUTP was increased from 1 μM to 4 μM for the assay with the virus pellet samples. Subsequently, in the assay with recombinant purified RT enzyme, no ATP besides 1 μM dNTP was used.
(§2) The reaction was started with the addition of RT either as recombinant or crude virus pellet form in a similar activity range as previous published (Lennerstrand et al., Antimicrob. Agents Chemother. 2007; 51:2078-2084). The RT reaction mixture was incubated at 33° C. for 180 min and terminated by NaOH (to dehybridize the template) and water washing of the plates.

Test [4] addresses T2, Recombinant S68del Reverse Transcriptase (Human immunodeficiency virus type 1 group M subtype B, UniProt P12497, DEL655-655).
T2 construct: The amplified PCR product comprising the RT of pNL4-3 was ligated into the linearized pQE60; inferred from the pQE60 vector and the in-frame BglII site of the reverse primer without a stop codon) (C); made in house; host or cells: bacteria
Put plainly: Heteropolymeric DNA polymerase RT assay in the absence of ATP, recombinant S68del RT. Format: biochemical, HIV-1. How it is done:
(§3) Nucleic acids were separated by gel electrophoresis in a TAE gel and extracted from bands using the Qiagen gel extraction kit. The 4.2 kb band from pNL4-3 containing the HIV-RT encoding sequences was ligated into the linearized pCR2.1, making the construct MC002. Site directed mutagenesis was performed on the MC002 plasmid. Primers used had the S68 codon AGT deleted, thus introducing the S68 deletion into the pNL4-3 RT background.
(§4) To ligate the RT of pNL4-3 comprising the deletion at S68 codon 68 into protein expression vector […] (Invitrogen), MC002 was amplified using forward primer 5′-[…]-3′ (SEQ ID NO: 10) and reverse primer 5′-[…] […]-3′ (SEQ ID NO: 11). The PCR product and pQE60 were digested with Bgl II and Nco I. The digested products were separated by gel electrophoresis nucleic acids in excised gel bands extracted using the Qiagen gel extraction kit. The amplified PCR product comprising the RT of pNL4-3 was ligated into the linearized pQE60. The ligation mix was transformed into chemically competent bacteria (Alpha-select). Plasmid DNA from selected transformants was extracted using a mini-prep kit (Qiagen). Plasmid DNA was sequenced in both directions to confirm the ligation.
as §1, §2

Test [5] deals with Recombinant S68del Reverse Transcriptase. The description is as above. The settings on record: Recombinant S68del RT IC50 divided by wild type IC50. The class given is biochemical, HIV-1. Here is the method:
as §3, §4, §1, §2

Test [6] concerns the target T3, Wild type Reverse Transcriptase (Human immunodeficiency virus type 1 group M subtype B, UniProt P12497).
T3 construct: The level of resistance to NRTI-TP by the S68del mutants compared to wild type RT
Briefly: Heteropolymeric DNA polymerase RT assay in the absence of ATP, wild type RT. The class given is biochemical, HIV-1. How it is done:
The level of resistance to NRTI-TP by the S68del mutants compared to wild type RT was determined as IC50 values of RT activity in the absence of ATP (Table 6). […] The RT activity was linear during the assay time within the substrate range used, and thus steady state kinetics were assumed.

The term EC50 denotes the concentration giving half of the maximal effect. Low readings indicate higher potency in that assay, high ones lower potency in that assay. For orientation: EC90 means the concentration at which the effect reaches the 90% level. A higher EC90 goes with a need for much substance. In test [1], `Nc1nc(=O)n([C@@H]2CS[C@H](CO)O2)cc1F` (relative stereo) [(−)-FTC, cis-2-hydroxymethyl-5-(5-fluorocytosin-1-yl)-1,3-oxathiolane] came in with an EC50 of 300 nM and a concentration for an effect of 90% (EC90) of 1100 nM. The “resistance of M184V RT (in words)” value in test [2] is “increased resistance”. In addition, in test [3] (particle-derived RT, 3.2 mM ATP, FIG. 5), the “resistance of S68del RT (in words)” value is reported as “increased resistance”.

A word on the IC50: it is the concentration that gives 50% inhibition. Turning to `Nc1nc(=O)n(C2C=CC(COP(=O)(O)OP(=O)(O)OP(=O)(O)O)O2)cc1F` (stereo not drawn) [DFC-TP], the concentration for half-maximal inhibition (IC50) turned out to be 1100 ± 200 nM in test [4] and 140 ± 20 nM in test [6] (Wild type RT). Also, the Fold-incr is given as 7.9 in test [5] and 1.0 in test [6] (Wild type RT (reference)). In test [3] (virally-derived S68del RT, relative to HIVLAI, enzymatic assay), the “fold increase in resistance” value is listed as 5.6 fold.
